The values that follow come from patent publication US20160222014A1, “COMPOUNDS FOR REGULATING FAK AND/OR SRC PATHWAYS” (ASANA BIOSCIENCES, LLC, priority 2013, published 2016).

Holding throughout (assay type): biochemical
One assay deals with T1, Recombinant Src enzyme (Homo sapiens, UniProt P12931).
T1 construct: purchased Millipore 14-326; host or cells: Sf21 insect cells
Description: Src HTRF assay. How it is done: Enzyme assay buffer, supplements, and compounds were prepared as described in the FAK HTRF assay.
Recombinant Src enzyme expressed in Sf21 insect cells was obtained (Millipore, Cat No. 14-326, Lot # D8CN006U-K). A 35 μM stock was used at a final concentration of 5 nM in the assay.
Tyk2 synthetic peptide-Biotinylated-N-terminal tag-[…]
A custom made substrate, a Tyk2 synthetic peptide, biotinylated with an N-terminal tag was obtained (Biopeptide and Sigma, Cat. No. 14918001 VC80021). A 100 μM stock was used at a final concentration of 0.5 μM in the assay.
A 10 mM stock in 100 μL enzyme assay buffer pH7.4 was prepared freshly and used at a final concentration of 10 μM in the assay.
Dasatinib (Bristol-Myers Squibb)
The assay procedure was the same as discussed above.
(In general: Time-resolved FRET reads energy transfer from a long-lived donor to a nearby acceptor.)

For another assay, the target named is T2, recombinant human FAK1 (Homo sapiens, UniProt Q05397).
T2 construct: fused on or other part: N-terminal 6xHis tag
In words: FAK1 HTRF assay. Put shortly: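 IC50 values derive from HTRF % inhibition (ratio 665/620 nm, Eu–anti-phosphotyrosine 0.1 nM, SA-APC 12 nM). The kinase step ran 45 min at room temperature, pairing 10 nM His-FAK1(692–end) from baculovirus with 0.5 μM gastrin Tyr87 biotin-peptide and a reagent at 10 μM final, pH 7.4. Compound dilutions began at 10 μM.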

For the next assay, the target named is T3, AURKB (Aurora B) enzyme (Homo sapiens, UniProt Q96GD4).
T3 construct: purchased Invitrogen PVR 130
Description: Aurora B HTRF assay. To be noted: read-out: AuroraB IC50. How it is done: AURKB (Aurora B) enzyme was obtained (Invitrogen, Cat No. PVR 130, Lot No. 857013J). A 8.64 μM stock was used at a final concentration 5 nM in the assay.
Lance@Ultera Ulight-PLK (Ser137) peptide substrate
Peptide substrate was obtained from Perkin Elmer (Lot#1629793, TRF0110-M). A 5 μM stock was used at a final concentration of 50 nM in the assay.
10 mM stock prepared freshly as above, used at a final concentration of 30 μM in assay.
The plate was covered with aluminum foil, put on a shaker and incubated 1 h at rt.
Reference: Pfizer aurora inhibitor PF-03814735 was procured from Selleckchem: Cat# S2725
Using stock Lance detection buffer, 1× Lance detection buffer was prepared. • 1. 10× lance detection buffer was diluted to 1×, mixed well and 100 μL was removed, and was used to substitute with antibody and EDTA (for a total of 2200 μL). • 2. 88 μL of […] EDTA was added from 500 mM stock. • 3. 14 μL Europium labeled antibody (LANCE@ Ultra EU-Anti-P-PLK(Ser 137), TRF0203-D, Lot No. 1630351, Perkin Elmer) was added from 625 nM stock; required concentration was 2 nM in the assay. • 4. The buffer well was mixed and 20 μL was transferred to the each well in the assay plate. • 5. The solutions were incubated for 1 h at rt. • 6. The plate was read using MET-HTRF® protocol using Pherastar equipment.

T3 sequence (Q96GD4 whole entry): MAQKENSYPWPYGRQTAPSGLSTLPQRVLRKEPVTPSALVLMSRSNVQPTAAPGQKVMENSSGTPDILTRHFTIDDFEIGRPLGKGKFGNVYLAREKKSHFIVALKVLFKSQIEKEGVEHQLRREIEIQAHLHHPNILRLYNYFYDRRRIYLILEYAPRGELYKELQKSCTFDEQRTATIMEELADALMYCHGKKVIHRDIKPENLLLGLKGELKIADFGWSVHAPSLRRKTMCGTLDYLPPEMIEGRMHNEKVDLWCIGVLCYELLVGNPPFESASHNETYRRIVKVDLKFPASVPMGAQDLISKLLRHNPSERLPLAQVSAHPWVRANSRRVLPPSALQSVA
T2 sequence (Q05397 422-680 limits assumed): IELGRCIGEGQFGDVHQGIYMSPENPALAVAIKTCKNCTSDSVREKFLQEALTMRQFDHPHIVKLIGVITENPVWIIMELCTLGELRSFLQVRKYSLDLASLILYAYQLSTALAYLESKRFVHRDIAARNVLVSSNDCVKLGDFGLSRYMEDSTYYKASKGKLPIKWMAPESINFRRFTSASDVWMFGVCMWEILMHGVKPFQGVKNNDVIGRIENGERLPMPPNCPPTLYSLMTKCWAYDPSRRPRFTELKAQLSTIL
T1 sequence (P12931 whole entry): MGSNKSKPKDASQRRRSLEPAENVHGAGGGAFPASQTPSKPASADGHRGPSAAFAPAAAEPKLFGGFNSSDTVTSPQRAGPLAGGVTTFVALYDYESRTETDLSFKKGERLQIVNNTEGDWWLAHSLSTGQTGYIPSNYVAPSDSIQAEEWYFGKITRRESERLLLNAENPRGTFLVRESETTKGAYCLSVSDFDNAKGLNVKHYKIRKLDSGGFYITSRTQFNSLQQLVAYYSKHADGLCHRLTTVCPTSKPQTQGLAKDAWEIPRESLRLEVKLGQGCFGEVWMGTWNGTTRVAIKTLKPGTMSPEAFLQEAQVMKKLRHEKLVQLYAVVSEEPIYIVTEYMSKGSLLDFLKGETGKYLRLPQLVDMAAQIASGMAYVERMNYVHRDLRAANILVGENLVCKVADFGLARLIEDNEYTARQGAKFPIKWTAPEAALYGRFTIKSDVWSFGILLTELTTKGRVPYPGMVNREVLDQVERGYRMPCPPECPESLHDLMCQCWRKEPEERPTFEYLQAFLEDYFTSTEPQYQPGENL

As usually defined, the IC50 is the concentration needed to halve the response being measured. As for `O=C1Cc2cc(Nc3cc4c(cn3)cnn4S(=O)(=O)c3cccc4cccnc34)ccc2N1` [Example 354], the half-inhibitory concentration (IC50) at Recombinant Src enzyme was greater than 1 µM.
For `O=S(=O)(c1ccccc1OC(F)(F)F)n1ccc2cnc(Nc3ccc(N4CCOCC4)cc3)nc21` [Example 112], the concentration for half-maximal inhibition (IC50) on Recombinant Src enzyme is greater than 1 µM.
Regarding `CN(c1ncccc1Cn1ccc2cnc(Nc3c(F)cccc3F)nc21)S(C)(=O)=O` [Example 167], the IC50 on Recombinant Src enzyme was greater than 1 µM.
For the compound `C[C@H]1CN(c2ccc(Nc3ncc4nnn(Cc5cccnc5N(C)S(C)(=O)=O)c4n3)cc2)CCN1` [Example 790], the IC50 at Recombinant Src enzyme was greater than 1 µM.
`CC(=O)Nc1ccc(Nc2cc3c(ccn3Cc3ccccc3OC(F)F)cn2)cc1` [Example 97]: the IC50 on Recombinant Src enzyme is greater than 1 µM.
With `CC1(C)CN(S(=O)(=O)c2cccc3ccccc23)c2nc(Nc3ccc(N4CCNCC4)cc3)ncc21` [Example 760], the IC50 at Recombinant Src enzyme was greater than 1 µM.
On the same count and under the same terms, then `C[C@H]1CN(c2ccc(Nc3cc4c(cn3)cnn4Cc3cccnc3N(C)S(C)(=O)=O)cc2)CCN1` [Example 781], with greater than 1 µM.
On to `COc1ccc(Cn2ccc3cnc(Nc4ccc(N5CCN[C@@H](C)C5)cc4)nc32)c(N(C)S(C)(=O)=O)c1` [Example 714], for which the half-inhibitory concentration (IC50) on Recombinant Src enzyme was greater than 1 µM.
In the case of `CC1(C)CN(S(=O)(=O)c2cccc3cccnc23)c2nc(Nc3ccc(NC4CCNCC4)cc3)ncc21` [Example 673], the IC50 on Recombinant Src enzyme is greater than 1 µM.
As for `CN1c2c(Cn3ccc4cnc(Nc5ccc(N6CCNCC6)cc5)nc43)cccc2CS1(=O)=O` [Example 756], the IC50 at Recombinant Src enzyme is greater than 1 µM.
Take `CC(=O)Nc1cccc(Nc2ncc3ccn(S(=O)(=O)c4ccc(C)cc4)c3n2)c1` [Example 39]: the IC50 at Recombinant Src enzyme was greater than 1 µM.
`COc1ccccc1S(=O)(=O)n1ncc2cnc(Nc3ccc4ncsc4c3)cc21` [Example 132]: at Recombinant Src enzyme, the IC50 is greater than 1 µM.
On to `CN1CC2CC1CN2c1ccc(Nc2ncc3ccn(S(=O)(=O)c4cccc5cccnc45)c3n2)cc1` (centres unmarked) [Example 410], for which the half-maximal inhibitory concentration (IC50) on recombinant human FAK1 and at AURKB (Aurora B) enzyme was less than 0.02 µM throughout.
As for `CN1CCN(c2ccc(Nc3cc4c(ccn4S(=O)(=O)c4cccc5cccnc45)cn3)cc2)CC1` [Example 353], the IC50 at recombinant human FAK1 and at AURKB (Aurora B) enzyme was less than 0.02 µM in each case.
`O=S(=O)(c1cccc2cccnc12)n1ccc2cnc(Nc3ccc(N4CCN(CCO)CC4)cc3)cc21` [Example 340]: the IC50 on recombinant human FAK1 and at AURKB (Aurora B) enzyme was less than 0.02 µM in each case.
On to `N#Cc1ccccc1S(=O)(=O)n1ccc2cnc(Nc3ccc4c(c3)CCC(=O)N4)nc21` [Example 115], for which the IC50 on recombinant human FAK1 and at AURKB (Aurora B) enzyme was less than 0.02 µM each time.
On to `CN1CCC(NC(=O)c2ccc(Nc3ncc4ccn(Cc5ccccc5N(C)S(C)(=O)=O)c4n3)cc2)CC1` [Example 777], for which the IC50 at recombinant human FAK1 and at AURKB (Aurora B) enzyme was less than 0.02 µM each time.
`C[C@H]1CN(c2ccc(Nc3cc4c(ccn4S(=O)(=O)c4ccccc4C#N)cn3)cc2)CCN1` [Example 472]: the IC50 on recombinant human FAK1 and on AURKB (Aurora B) enzyme was less than 0.02 µM each time.
As for `Cc1ccc(N(C)S(C)(=O)=O)c(Cn2ccc3cnc(Nc4ccc(N5CCC(N(C)C)CC5)c(C)c4)nc32)c1` [Example 780], the concentration for half-maximal inhibition (IC50) at recombinant human FAK1 and at AURKB (Aurora B) enzyme was less than 0.02 µM throughout.
Take `O=S(=O)(c1cccc2cccnc12)n1ccc2cnc(Nc3ccc4ncsc4c3)nc21` [Example 381]: the IC50 on recombinant human FAK1 and on AURKB (Aurora B) enzyme was less than 0.02 µM throughout.
As for `CN(c1ccccc1Cn1ccc2cnc(Nc3ccc(N4CCN(CCO)CC4)cc3)nc21)S(C)(=O)=O` [Example 423], the 50% inhibitory concentration (IC50) on recombinant human FAK1 and at AURKB (Aurora B) enzyme was less than 0.02 µM each time.
On to `O=S(=O)(c1cccc2cccnc12)n1ncc2cnc(Nc3ccc(N4CCNCC4)cc3)nc21` [Example 231, N-(4-(piperazin-1-yl)phenyl)-1-(quinolin-8-ylsulfonyl)-1H-pyrazolo[3,4-d]pyrimidin-6-amine], for which the IC50 on recombinant human FAK1 and on AURKB (Aurora B) enzyme was less than 0.02 µM throughout.
Take `C[C@H](O)CN1CCN(c2ccc(Nc3ncc4ccn(Cc5ccccc5N(C)S(C)(=O)=O)c4n3)cc2)CC1` [Example 632]: the IC50 on recombinant human FAK1 and at AURKB (Aurora B) enzyme was less than 0.02 µM throughout.
Take `C[C@@H]1CNCCN1c1ccc(Nc2cc3c(ccn3S(=O)(=O)c3cccc4cccnc34)cn2)cc1` [Example 480]: the IC50 on recombinant human FAK1 and on AURKB (Aurora B) enzyme was less than 0.02 µM in each case.
Consider `O=S(=O)(c1cccc2cccnc12)n1ccc2cnc(Nc3ccc(N4CCC(O)CC4)cc3)cc21` [Example 346], for which the IC50 on recombinant human FAK1 and on AURKB (Aurora B) enzyme was less than 0.02 µM throughout.
In the case of `C[C@H]1CNCCN1c1ccc(Nc2cc3c(ccn3S(=O)(=O)c3cccc4cccnc34)cn2)cc1` [Example 478], the IC50 at recombinant human FAK1 and on AURKB (Aurora B) enzyme was less than 0.02 µM throughout.
In the case of `C[C@H]1CN(c2ccc(Nc3ncc4ccn(S(=O)(=O)c5cccc6cccnc56)c4n3)cc2)CCN1` [Example 230], the concentration for half-maximal inhibition (IC50) at recombinant human FAK1 and at AURKB (Aurora B) enzyme was less than 0.02 µM in each case.
Regarding `COc1ccc(N(C)S(C)(=O)=O)c(Cn2ccc3cnc(Nc4ccc5c(c4)CC(=O)N5)nc32)c1` [Example 691], the IC50 on recombinant human FAK1 and at AURKB (Aurora B) enzyme was less than 0.02 µM throughout.
As for `CN(C)C1CCN(c2ccc(Nc3cc4c(ccn4S(=O)(=O)c4ccccc4C#N)cn3)cc2)CC1` [Example 485], the IC50 on recombinant human FAK1 and at AURKB (Aurora B) enzyme was less than 0.02 µM each time.
For the compound `C[C@H]1CNCCN1c1ccc(Nc2ncc3ccn(S(=O)(=O)c4cccc5cccnc45)c3n2)cc1` [Example 326], the half-inhibitory concentration (IC50) at recombinant human FAK1 and at AURKB (Aurora B) enzyme was less than 0.02 µM each time.
Take `N#Cc1ccccc1S(=O)(=O)n1ccc2cnc(Nc3ccc(N4CCN(CCO)CC4)cc3)cc21` [Example 413]: the IC50 at recombinant human FAK1 and on AURKB (Aurora B) enzyme was less than 0.02 µM throughout.
For the compound `Cc1cc(Nc2cc3c(ccn3S(=O)(=O)c3ccccc3C#N)cn2)ccc1N1CCNCC1` [Example 390], the IC50 on recombinant human FAK1 and on AURKB (Aurora B) enzyme was less than 0.02 µM each time.
For the compound `O=S(=O)(c1cccc2cccnc12)n1ccc2cnc(Nc3ccc(N4CCC(CO)CC4)cc3)nc21` [Example 440], the IC50 at recombinant human FAK1 and on AURKB (Aurora B) enzyme was less than 0.02 µM in each case.
For the compound `COc1cc(Nc2ncc3ccn(S(=O)(=O)c4cccc5cccnc45)c3n2)ccc1N1CCN(C)CC1` [Example 427], the IC50 at recombinant human FAK1 and at AURKB (Aurora B) enzyme was less than 0.02 µM each time.
Take `COc1cc(Nc2ncc3ccn(S(=O)(=O)c4cccc5cccnc45)c3n2)ccc1N1CCN(CCO)CC1` [Example 431]: the IC50 at recombinant human FAK1 and at AURKB (Aurora B) enzyme was less than 0.02 µM each time.
Regarding `CN1CCN(c2ccc(Nc3ncc4ccn(Cc5ccccc5N(C)S(C)(=O)=O)c4n3)cc2)CC1` [Example 428], the IC50 on recombinant human FAK1 and on AURKB (Aurora B) enzyme was less than 0.02 µM each time.
Regarding `CN(c1ncccc1Cn1ccc2cnc(Nc3ccc4c(c3)C(C)(C)CC(=O)N4)nc21)S(C)(=O)=O` [Example 211], the IC50 on recombinant human FAK1 and on AURKB (Aurora B) enzyme was less than 0.02 µM in each case.
In the case of `CN(c1ccccc1Cn1ccc2cnc(Nc3ccc(N4CCN(CC(=O)O)CC4)cc3)nc21)S(C)(=O)=O` [Example 662], the IC50 on recombinant human FAK1 and at AURKB (Aurora B) enzyme was less than 0.02 µM throughout.
On to `CN(c1ccccc1Cn1ccc2cnc(Nc3ccc(N4CCNC(C)(C)C4)cc3)nc21)S(C)(=O)=O` [Example 606], for which the half-maximal inhibitory concentration (IC50) at recombinant human FAK1 and on AURKB (Aurora B) enzyme was less than 0.02 µM each time.
In the case of `CN(C)C1CCN(c2ccc(Nc3ncc4ccn(S(=O)(=O)c5cccc6cccnc56)c4n3)cc2)CC1` [Example 462], the IC50 on recombinant human FAK1 and on AURKB (Aurora B) enzyme was less than 0.02 µM each time.
`COc1ccc(N(C)S(C)(=O)=O)c(Cn2ccc3cnc(Nc4ccc(N5CCN[C@@H](C)C5)cc4)nc32)c1` [Example 675]: the IC50 at recombinant human FAK1 and on AURKB (Aurora B) enzyme was less than 0.02 µM each time.
Turning to `C[C@H](O)CN1CCN(c2ccc(Nc3ncc4ccn(Cc5ccccc5N(C)S(C)(=O)=O)c4n3)cc2)C[C@@H]1C` [Example 695, N-(2-((2-((4-((S)-4-((S)-2-hydroxypropyl)-3-methylpiperazin-1-yl)phenyl)amino)-7H-pyrrolo[2,3-d]pyrimidin-7-yl)methyl)phenyl)-N-methylmethanesulfonamide], the IC50 on recombinant human FAK1 and at AURKB (Aurora B) enzyme was less than 0.02 µM in each case.
Turning to `CN(c1ncccc1Cn1ccc2cnc(Nc3ccc4c(c3)OCC(=O)N4)nc21)S(C)(=O)=O` [Example 218], the IC50 at recombinant human FAK1 and on AURKB (Aurora B) enzyme was less than 0.02 µM throughout.
